The values below are quoted from earlier work in article PMC12308805, “Ultrahigh-Throughput Virtual Screening Strategies against PPI Targets: A Case Study of STAT Inhibitors” (Journal of Chemical Information and Modeling, 2025).

Molecules are shown by their SMILES.

In the first data set the test system is STAT3. Particulars: sheet 6QHD_actives_decoys; retrospective screening set for STAT3 SH2 domain (PDB 6QHD); […]; ref DUD-E; cited from earlier work.
Take `COc1cc([N+](=O)[O-])ccc1NC(=S)Nc1ccc(S(=O)(=O)Nc2ccc(Cl)nn2)cc1` [Decoy332]: the Type entry was “Inactive (Decoy)”.

As for `COc1cc(S(=O)(=O)N2CCCCC2)ccc1N/C=C1/C(=O)NC(=O)N(c2ccccc2)C1=O` [Decoy344], the Type result is given as “Inactive (Decoy)”.

For `CO[C@@H]1C[C@H](O[C@H]2CC[C@]3(/C=N/CC#N)[C@H]4CC[C@]5(C)[C@@H](C6=CC(=O)OC6)CC[C@]5(O)[C@@H]4CC[C@]3(O)C2)O[C@@H](C)[C@@H]1O` [Decoy348], the Type result is on record as “Inactive (Decoy)”.

As to `Cc1ccc(S(=O)(=O)NCCCCNS(=O)(=O)c2ccc(C)c([N+](=O)[O-])c2)cc1[N+](=O)[O-]` [Decoy360], the Type result is listed as “Inactive (Decoy)”.

With `Cc1nccc(NS(=O)(=O)c2ccc(NC(=O)c3cccc(C(=O)Nc4ccc(S(=O)(=O)Nc5ccnc(C)n5)cc4)c3)cc2)n1` [Decoy361], the Type result is “Inactive (Decoy)”.

The data set is the same for the next values; noted with them: sheet 6QHD_actives_decoys; retrospective screening set for STAT3 SH2 domain (PDB 6QHD); decoys generated with DUD-E and presumed inactive, not tested; ref DUD-E; cited from earlier work.
In the case of `Nc1nc(OCc2cc(Br)cs2)c2ncn(CCCCCCCCO[C@H]3O[C@@H](CO)[C@@H](O)[C@@H](O)[C@@H]3O)c2n1` [Decoy331], the Type entry was “Inactive (Decoy)”.

Take `COCC(=O)Nc1c(I)c(C(=O)NC[C@H](O)CO)c(I)c(C(=O)N(C)C[C@H](O)CO)c1I` [Decoy333]: the Type result is “Inactive (Decoy)”.

For `CNc1ncnc2c1ncn2[C@H]1C[C@H](O)[C@@H](COC(c2ccccc2)(c2ccc(OC)cc2)c2ccc(OC)cc2)O1` [Decoy334], the Type entry is listed as “Inactive (Decoy)”.

`COC(=O)c1ccc(C(=O)OC)c(NC(=O)c2ccc(C(=O)Nc3cc(C(=O)OC)ccc3C(=O)OC)cc2)c1` [Decoy335]: the Type result was “Inactive (Decoy)”.

As for `C=CCn1c(Cc2csc(N)n2)nnc1SCC(=O)Nc1ccc(S(=O)(=O)Nc2cc(C)on2)cc1` [Decoy336], the Type entry is “Inactive (Decoy)”.

On to `COc1ccc([C@H](C(=O)NCS(=O)(=O)c2ccc(C)cc2)N(Cc2ccco2)C(=O)CCl)cc1` [Decoy337], for which the Type entry is recorded as “Inactive (Decoy)”.

Consider `COC(=O)[C@@H]1O[C@H](OC/C(=N/NC(N)=O)[C@@]2(O)CC[C@@H]3[C@@H]4CC[C@@H]5C[C@H](OC(C)=O)CC[C@@]5(C)[C@H]4C(=O)C[C@]32C)[C@@H](OC(C)=O)[C@H](OC(C)=O)[C@H]1OC(C)=O` [Decoy338], for which the Type result is “Inactive (Decoy)”.

For `COC(=O)[C@@H]1O[C@H](OC/C(=N/NC(N)=O)[C@@]2(O)CC[C@@H]3[C@@H]4CC[C@@H]5C[C@H](OC(C)=O)CC[C@]5(C)[C@H]4C(=O)C[C@]32C)[C@@H](OC(C)=O)[C@H](OC(C)=O)[C@H]1OC(C)=O` [Decoy339], the Type entry was “Inactive (Decoy)”.

As for `COC(=O)[C@@H]1O[C@H](OC/C(=N/NC(N)=O)[C@@]2(O)CC[C@@H]3[C@@H]4CC[C@H]5C[C@H](OC(C)=O)CC[C@@]5(C)[C@H]4C(=O)C[C@]32C)[C@@H](OC(C)=O)[C@H](OC(C)=O)[C@H]1OC(C)=O` [Decoy340], the Type result is “Inactive (Decoy)”.

Take `COC(=O)/C(=N/NC(C)(C)C)[C@@H](C(=O)C(=O)Nc1cc(C)ccc1C)c1nc2ccccc2[nH]c1=O` [Decoy341]: the Type entry is on record as “Inactive (Decoy)”.

As for `C/C=C(/C[C@@H](O)N(C=O)Cc1cnc(C)nc1N)SS/C(=C/C)C[C@@H](O)N(C=O)Cc1cnc(C)nc1N` [Decoy342], the Type result is given as “Inactive (Decoy)”.

With `C=CCSc1nnc(/N=C(\O)CSc2nnc(N/N=C/c3c(O)ccc4ccccc34)n2N)s1` [Decoy343], the Type entry is “Inactive (Decoy)”.

Turning to `COC(=O)[C@@H]1[C@H](O)[C@H](C)[C@H](O)O[C@@H]1[C@H](C)[C@H](O)[C@@H](C)/C=C\C=C(/C)C(=O)Nc1c(C)c(OC(C)=O)c2c(c1O)C(=O)C(C)=C1OCOC(/C(C)=C/C(C)=O)=C12` [Decoy345], the Type entry is listed as “Inactive (Decoy)”.

Turning to `CCCCOc1ccc([C@H]2C(C(=O)c3nc4c(C)cccn4c3C)=C(O)C(=O)N2CCOC)cc1OC` [Decoy346], the Type result is reported as “Inactive (Decoy)”.

In the case of `CC(=O)O[C@H]1[C@H](O)[C@H]([C@@](C)(O)CC[C@@H](O)C(C)(C)O)[C@@]2(C)CC[C@@]34C[C@@]35CC[C@H](O[C@@H]3OC[C@@H](O)[C@H](O)[C@H]3O)C(C)(C)[C@@H]5CC[C@H]4[C@]12C` [Decoy347], the Type result is on record as “Inactive (Decoy)”.

For the compound `COC(=O)[C@@H](/C(=N/N)C(=O)Nc1cc(Cl)ccc1Cl)c1nc2ccc([N+](=O)[O-])cc2nc1O` [Decoy349], the Type entry is “Inactive (Decoy)”.

Turning to `CN(C)S(=O)(=O)c1cccc(C(=O)NNC(=O)c2cn(-c3ccccc3)nc2-c2cccnc2)c1` [Decoy350], the Type entry is given as “Inactive (Decoy)”.

Consider `COC(=O)c1ccc(NC(=O)CSc2nc(N)c(NC(=O)c3ccc(Br)o3)c(=O)[nH]2)cc1` [Decoy351], for which the Type entry is “Inactive (Decoy)”.

Turning to `COC(=O)CCSCCO[C@@H]1O[C@H](CO)[C@@H](O[C@@H]2O[C@H](CO)[C@@H](O)[C@@H](O)[C@H]2O)[C@@H](O)[C@H]1NC(C)=O` [Decoy352], the Type result is listed as “Inactive (Decoy)”.

With `COC(=O)CCSCCO[C@@H]1O[C@H](CO)[C@@H](O[C@@H]2O[C@H](CO)[C@@H](O)[C@@H](O)[C@H]2O)[C@H](O)[C@@H]1NC(C)=O` [Decoy353], the Type result was “Inactive (Decoy)”.

With `COC(=O)CCSCCO[C@@H]1O[C@H](CO)[C@@H](O[C@@H]2O[C@H](CO)[C@@H](O)[C@@H](O)[C@H]2O)[C@H](O)[C@H]1NC(C)=O` [Decoy354], the Type entry was “Inactive (Decoy)”.

Consider `COc1ccc(/C=C(\C#N)C(=O)Nc2ccc(S(=O)(=O)Nc3ccc(C)cc3)cc2)cc1OS(=O)(=O)c1ccc(NC(C)=O)cc1` [Decoy355], for which the Type result is “Inactive (Decoy)”.

Take `O=C(O)C[C@H](NC(=O)CN(CCN(CC(=O)O)CC(=O)N[C@@H](CC(=O)O)C(=O)O)CC(=O)O)C(=O)O` [Decoy356]: the Type result is on record as “Inactive (Decoy)”.

For the compound `COc1ccc(NC(=O)C2=C(C)NC(SCC(=O)Nc3cccc(OC)c3)=C(C#N)[C@@H]2c2ccco2)cc1` [Decoy357], the Type result is recorded as “Inactive (Decoy)”.

Turning to `CCOC(=O)c1ccc(NC(=O)C/C(C)=N/NC(=O)C(=O)Nc2cccc(Cl)c2C)cc1` [Decoy358], the Type entry is “Inactive (Decoy)”.

As for `COc1ccc2[nH]cc(CCN/C(=N\C(=O)CS[C@H]3N=N[C@@H](N)S3)Nc3nc(C)cc(C)n3)c2c1` [Decoy359], the Type entry is given as “Inactive (Decoy)”.

Consider `COc1cc(C(=O)NCC(=O)N/N=C/c2cc(Br)ccc2OC(=O)c2ccc(C)cc2)cc(OC)c1OC` [Decoy362], for which the Type entry is given as “Inactive (Decoy)”.

Turning to `CNC(=O)Cn1c(=O)[nH]c(NC)c(C(c2ccc(Cl)cc2)c2c(NC)[nH]c(=O)n(CC(=O)NC)c2=O)c1=O` [Decoy363], the Type result was “Inactive (Decoy)”.

As for `COC(=O)c1sc(S(=O)(=O)NCC(=O)OCC(=O)Nc2cccc(C#N)c2)c(C(=O)OC)c1C` [Decoy364], the Type result is recorded as “Inactive (Decoy)”.

For `O=C(CN(c1cccc([N+](=O)[O-])c1)S(=O)(=O)c1ccccc1)Nc1ccccc1C(=O)NCc1ccco1` [Decoy365], the Type entry is recorded as “Inactive (Decoy)”.

Regarding `COC(=O)c1cc(NC(=S)/N=C(/NCCN2CCOCC2)Nc2nc(C)cc(C)n2)cc(C(=O)OC)c1` [Decoy366], the Type entry is “Inactive (Decoy)”.

As to `C/C=C1/[C@H](O[C@@H]2O[C@H](CO)[C@@H](O)[C@H](O)[C@H]2O)OC=C(C(=O)OC)[C@H]1CC(=O)OCCc1ccc(O)c(O)c1` [Decoy367], the Type result is listed as “Inactive (Decoy)”.

`CCCCN(CC(=O)Nc1c(-c2ccccc2)c(C)nn1-c1ccc(OC)cc1)C(=O)c1ccc(OC)cc1OC` [Decoy368]: the Type result is “Inactive (Decoy)”.

For the compound `C=C1N=C2C[C@H](c3ccc(OC)c(OC)c3)CC(=O)C2[C@H](c2cc(Br)c(O)c(OCC)c2)C1C(=O)OCCOCC` (stereo partly drawn) [Decoy369], the Type result is given as “Inactive (Decoy)”.

`C=CCOC(=O)[C@H]1O[C@@H](OC(=O)c2cc(S(N)(=O)=O)c(Cl)cc2NCc2ccco2)[C@H](O)[C@@H](O)[C@@H]1O` [Decoy370]: the Type result is given as “Inactive (Decoy)”.

Consider `CCOC(=O)c1ccc(NC(=O)CSc2nc3cc(C(=O)OC)ccc3c(=O)n2CCN2CCOCC2)cc1` [Decoy371], for which the Type entry is given as “Inactive (Decoy)”.

Regarding `COc1ccc(C(=O)O[C@H]2[C@@H]3C=CO[C@@H](O[C@@H]4O[C@H](COC(C)=O)[C@@H](OC(C)=O)[C@H](OC(C)=O)[C@H]4OC(C)=O)[C@@H]3[C@](O)(COC(C)=O)[C@@H]2O)cc1` [Decoy372], the Type result is given as “Inactive (Decoy)”.

For the compound `COc1ccc(C(=O)O[C@H]2[C@@H]3C=CO[C@H](O[C@@H]4O[C@H](COC(C)=O)[C@@H](OC(C)=O)[C@H](OC(C)=O)[C@H]4OC(C)=O)[C@@H]3[C@](O)(COC(C)=O)[C@@H]2O)cc1` [Decoy373], the Type entry was “Inactive (Decoy)”.

For `O=C(CCN(Cc1ccco1)S(=O)(=O)c1ccc(Cl)cc1)NNC(=O)Nc1ccc(OC(F)(F)F)cc1` [Decoy374], the Type entry was “Inactive (Decoy)”.

For the compound `COc1ccc(C(=O)N/C(=C\c2cn(S(=O)(=O)N(C)C)c3ccccc23)C(=O)NCCN2CCOCC2)cc1OC` [Decoy375], the Type result was “Inactive (Decoy)”.

As for `NC(=O)CSc1nnc(NC(=O)CSc2nnc(N/N=C/c3cccc4ccccc34)n2N)s1` [Decoy376], the Type entry was “Inactive (Decoy)”.

On to `O=C(NCCCN1CCOCC1)C(C(=O)NCCCN1CCOCC1)c1ncc(C(F)(F)F)cc1Cl` [Decoy377], for which the Type entry was “Inactive (Decoy)”.

Regarding `CC(C)CNC(=O)c1ccc2c(=O)n(C(C)C)c3nn(CC(=O)Nc4ccc(F)cc4)c(=O)n3c2c1` [Decoy378], the Type entry is listed as “Inactive (Decoy)”.

In the case of `COc1cc(/C=N/Nc2nnc(SCC(=O)Nc3ccc(C)cc3C)n2N)cc(OC)c1OC` [Decoy379], the Type entry was “Inactive (Decoy)”.

Regarding `C=CCn1c(SCC(=O)Nc2sc(C(N)=O)c(C)c2C(=O)OC)nnc1-c1ccc(N(C)C)cc1` [Decoy380], the Type result is reported as “Inactive (Decoy)”.

As for `CC(=O)N[C@@H]1[C@H]([C@H](O)[C@H](O)CO)O[C@@](O[C@H]2[C@@H](O)[C@@H](O[C@@H]([C@@H](O[C@@H]3O[C@@H](C)[C@@H](O)[C@H](O)[C@@H]3O)[C@H](O)C=O)[C@H](O)CO)O[C@@H](CO)[C@H]2O)(C(=O)O)C[C@@H]1O` [Decoy381], the Type result was “Inactive (Decoy)”.
